According to patent US10364263B2, “Cyclic phosphates and cyclic phosphoramidates for the treatment of neurologic disorders” (Retrophin, Inc., priority 2015, dated 2019):
Like-named read-outs stand apart in the source and are kept apart here.

What was measured:
[1] = Stability in mouse plasma; format: in vitro ADME
Summary of the method: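 Test compound at 3 μM (0.1% DMSO) was incubated in mouse or human plasma at 37 °C and sampled in duplicate at 0, 10, 20, 30, 40 and 60 min. Reactions were stopped with acetonitrile/formic acid containing internal standard. Remaining parent was measured by UPLC-MS/MS without a calibration curve.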

[2] = Permeability in porcine brain endothelial cell blood-brain barrier model; format: in vitro ADME; conditions: pig (endothelial cells), co-cultured with rat astrocytes, pH 7.4, PBECs/As blood-brain barrier model, luminal to basal
From the text: Compounds disclosed herein show the potential to reach mammalian brain by crossing the blood-brain barrier (BBB) from systemic circulation. […] The porcine brain endothelial cell permeability assay is an in vitro BBB model to be used for the prediction of central nervous system (CNS) drug permeability in vivo and for ranking or prioritization of compounds according to their permeability. This system can also be used for mechanistic studies and drug delivery strategies via receptor-mediated transport (transcytosis). The system is a two-dimensional co-culture, non-contact model of two types of primary cells: primary brain endothelial cells obtained from fresh porcine brains, and primary rat astrocytes, obtained from neonatal rats. This ensures barrier formation and functional expression of key transporters.
The endothelial cells were cultured on rat-tail collagen type I and human fibronectin coated Transwell polycarbonate inserts (surface area 0.7 cm^2; pore size 0.4 μm) and the inserts were placed in 24-well plates containing confluent rat astrocytes. This system allows for the formation of a differentiated BBB model suitable for compound permeability in 10 days.
On the day of the experiment, culture medium was removed and cells were pre-incubated for 30 min with HBSS containing 20 mM Hepes pH 7.4 and 0.1% BSA. Donor volume (apical) was 400 μl and receiver volume (basal) 900 μl. Compounds were diluted in assay medium (at the desired concentration) and added to the luminal side (to mimic blood to brain passage). Transport was measured usually after 60 min by detecting the amount of compound from the basal (brain side). The integrity of the cell layers was assessed by measuring the transendothelial electrical resistance (TEER) and by monitoring FITC-dextran (40 KDa) permeation. Inserts with TEER values […] were selected for permeability studies. As FITC-dextran cannot freely permeate lipophilic barriers, a high degree of FITC-dextran transport indicates poor integrity of the cell layer and wells with high FITC-dextran permeability were excluded. FITC-dextran was included as internal control in each insert used for permeability studies. Fluorescence was measured using a fluorimetric detector. Radioactivity was measured by scintillation counting. For LC-MS/MS analysis, aliquots (200 μl) from the basal compartment were diluted with an equal volume of 100% acetonitrile containing 0.1% formic acid, centrifuged to remove cell debris, and evaporated under N2. After reconstitution, samples were analyzed by LC-MS/MS. Mass balance was determined considering the amount of compound recovered in the donor and receiver chamber at the end of the assay relative to the amount added to the donor chamber at time 0.
Permeability was defined as the apparent permeability coefficient (Papp), which is a measure of the appearance rate of the compound in the receiver chamber, expressed in cm/s. Papp is calculated according the following equation: Papp[cm/sec]=Vd*ΔMr/A*Md*Δt, Equation 2: where
Vd=volume in the donor compartment in cm^3 or mL;
ΔMr=total amount of compound in the receiver compartment after t seconds;
Md=donor amount (added at time 0)
Δt=time measured in seconds
A=filter area in cm^2 (for 24 well plate, A=0.7 cm^2).
To correct for the contribution of filter and substrate, Papp was also determined for the cell-free system. Permeability of the endothelial cell layer was determined using the following equation: […], Equation 3: where
Ptotal=the P of the total system,
Pf=P for the cell-free filter, and
Pe=P for the endothelial cell layer alone. In this equation, the total resistance of the system towards passage of a substance is additively composed of two […] resistances: that of the cell monolayer and that of the filter.

[3] = Diastereoisomer A, read-out: Papp Diastereoisomer A
[4] = Diastereoisomer B, read-out: Papp Diastereoisomer B
[5] = Diastereoisomer A (upfield shift in 31P NMR), 3 μM, 37° C., mouse plasma, read-out: t1/2, Mouse Plasma, Diastereoisomer A
[6] = Diastereoisomer B, 3 μM, 37° C., mouse plasma

| SMILES | half-life at 3 µM ([1]; mouse, plasma) | t1/2, Mouse Plasma, Diastereoisomer B ([1]; mouse, plasma, 3 µM) | Papp A→B at 60 min [2, 3] | Papp A→B at 60 min [2, 4] | half-life at 3 µM [1, 5] | t1/2, Mouse Plasma, Diastereoisomer B [1, 6] |
| --- | --- | --- | --- | --- | --- | --- |
| COC(=O)CCNC(=O)[C@@H]1OP(=O)(OCOC(=O)C(C)(C)C)OCC1(C)C (stereo partly drawn) [Compound No. 65, (((4R)-4-((3-methoxy-3-oxopropyl)carbamoyl)-5,5-dimethyl-2-oxido-1,3,2-dioxaphosphinan-2-yl)oxy)methyl pivalate] | < 9.6 min | <9.6 min | 20.3 ×10⁻⁶ cm/s | 18.3 ×10⁻⁶ cm/s | – | – |
| COC(=O)CCNC(=O)[C@@H]1OP(=O)(N[C@@H](C)C(=O)OC)OCC1(C)C (stereo partly drawn) [compound 5, methyl 3-((4R)-2-(((S)-1-methoxy-1-oxopropan-2-yl)amino)-5,5-dimethyl-2-oxido-1,3,2-dioxaphosphinane-4-carboxamido)propanoate] | – | – | 6.27 ×10⁻⁶ cm/s | 5.06 ×10⁻⁶ cm/s | < 9.6 min | <9.6 min |
| COC(=O)CCNC(=O)[C@@H]1OP(=O)(N[C@@H](C)C(=O)OCc2ccccc2)OCC1(C)C (stereo partly drawn) [Compound No. 11, Benzyl ((4R)-4-((3-methoxy-3-oxopropyl)carbamoyl)-5,5-dimethyl-2-oxido-1,3,2-dioxaphosphinan-2-yl)-L-alaninate] | – | – | 3.52 ×10⁻⁶ cm/s | 3.12 ×10⁻⁶ cm/s | – | – |
| COC(=O)CCNC(=O)[C@@H]1OP(=O)(N[C@H](C)C(=O)OC)OCC1(C)C (stereo partly drawn) [compound 16, methyl 3-((4R)-2-(((R)-1-methoxy-1-oxopropan-2-yl)amino)-5,5-dimethyl-2-oxido-1,3,2-dioxaphosphinane-4-carboxamido)propanoate] | – | – | 3.33 ×10⁻⁶ cm/s | 4.35 ×10⁻⁶ cm/s | < 9.6 min | <9.6 min |
| COC(=O)CCNC(=O)[C@@H]1OP(=O)(OCOC(=O)OC(C)C)OCC1(C)C (stereo partly drawn) [Compound No. 69, Methyl 3-((4R)-2-(((isopropoxycarbonyl)oxy)methoxy)-5,5-dimethyl-2-oxido-1,3,2-dioxaphosphinane-4-carboxamido)propanoate] | < 9.6 min | <9.6 min | 22.8 ×10⁻⁶ cm/s | 29.9 ×10⁻⁶ cm/s | – | – |
| COC(=O)CCNC(=O)[C@@H]1OP(=O)(OCCSC(=O)C(C)(C)C)OCC1(C)C (stereo partly drawn) [Compound No. 2-133, Methyl 3-((4R)-5,5-dimethyl-2-oxido-2-(2-(pivaloylthio)ethoxy)-1,3,2-dioxaphosphinane-4-carboxamido)propanoate] | – | – | 21.1 ×10⁻⁶ cm/s | 21 ×10⁻⁶ cm/s | – | – |
| COC(=O)CCNC(=O)[C@@H]1OP(=O)(N[C@@H](C)C(=O)OCc2cc(C)cc(C)c2)OCC1(C)C (stereo partly drawn) [compound 3, (2S)-3,5-dimethylbenzyl 2-(((4R)-4-((3-methoxy-3-oxopropyl)carbamoyl)-5,5-dimethyl-2-oxido-1,3,2-dioxaphosphinan-2-yl)amino)propanoate] | < 9.6 min | <9.6 min | 9.99 ×10⁻⁶ cm/s | 8.47 ×10⁻⁶ cm/s | – | – |
| COC(=O)CCNC(=O)[C@@H]1OP(=O)(NCCN2CCCC2)OCC1(C)C (stereo partly drawn) [compound 109, methyl 3-((4R)-5,5-dimethyl-2-oxido-2-((2-(pyrrolidin-1-yl)ethyl)amino)-1,3,2-dioxaphosphinane-4-carboxamido)propanoate] | – | – | 5.26 ×10⁻⁶ cm/s | – | < 9.6 min | – |
| COC(=O)CCNC(=O)[C@@H]1OP(=O)(N[C@@H](C)C(=O)OCc2cccnc2)OCC1(C)C (stereo partly drawn) [compound 24, methyl 3-((4R)-5,5-dimethyl-2-oxido-2-(((S)-1-oxo-1-(pyridin-3-ylmethoxy)propan-2-yl)amino)-1,3,2-dioxaphosphinane-4-carboxamido)propanoate] | < 9.6 min | <9.6 min | 0.54 ×10⁻⁶ cm/s | 0.6 ×10⁻⁶ cm/s | – | – |
| COC(=O)CCNC(=O)[C@@H]1OP(=O)(NCCC(=O)OCc2ccccc2)OCC1(C)C (stereo partly drawn) [compound 117, benzyl 3-(((4R)-4-((3-methoxy-3-oxopropyl)carbamoyl)-5,5-dimethyl-2-oxido-1,3,2-dioxaphosphinan-2-yl)amino)propanoate] | < 9.6 min | <9.6 min | 1.95 ×10⁻⁶ cm/s | 2.9 ×10⁻⁶ cm/s | – | – |
| CCc1cc(C(=O)OCOP2(=O)OCC(C)(C)[C@H](C(=O)NCCC(=O)OC)O2)n(C)n1 (stereo partly drawn) [Compound No. 84, (((4R)-4-((3-methoxy-3-oxopropyl)carbamoyl)-5,5-dimethyl-2-oxido-1,3,2-dioxaphosphinan-2-yl)oxy)methyl 3-ethyl-1-methyl-1H-pyrazole-5-carboxylate] | < 9.6 min | <9.6 min | 10.1 ×10⁻⁶ cm/s | 14.5 ×10⁻⁶ cm/s | – | – |
| CC1(C)COP(=O)(O)O[C@H]1C(=O)NCCC(=O)O [compound 108, 3-((4R)-2-hydroxy-5,5-dimethyl-2-oxido-1,3,2-dioxaphosphinane-4-carboxamido)propanoic acid] | – | – | 0.58 ×10⁻⁶ cm/s | – | – | – |
| CC(C)(C)C(=O)OCO[P@@]1(=O)OCC(C)(C)[C@H](C(=O)NCCC(=O)O)O1 [Compound No. 91, 3-((2S,4R)-5,5-dimethyl-2-oxido-2-((pivaloyloxy)methoxy)-1,3,2-dioxaphosphinane-4-carboxamido)propanoic acid] | 30.6 min | – | 0.45 ×10⁻⁶ cm/s | – | – | – |
| COC(=O)CCNC(=O)[C@@H]1OP(=O)(N[C@@H](C)C(=O)OCCc2ccccc2)OCC1(C)C (stereo partly drawn) [Compound No. 2, Methyl 3-((4R)-5,5-dimethyl-2-oxido-2-(((S)-1-oxo-1-phenethoxypropan-2-yl)amino)-1,3,2-dioxaphosphinane-4-carboxamido)propanoate] | < 9.6 min | <9.6 min | 3.35 ×10⁻⁶ cm/s | 2.61 ×10⁻⁶ cm/s | – | – |
| COC(=O)CCNC(=O)[C@@H]1OP(=O)(OCOC(=O)c2cncs2)OCC1(C)C (stereo partly drawn) [Compound No. 70, (((4R)-4-((3-methoxy-3-oxopropyl)carbamoyl)-5,5-dimethyl-2-oxido-1,3,2-dioxaphosphinan-2-yl)oxy)methyl thiazole-5-carboxylate] | < 9.6 min | <9.6 min | 1.58 ×10⁻⁶ cm/s | 2.56 ×10⁻⁶ cm/s | – | – |
| COC(=O)[C@H](C)NP1(=O)OCC(C)(C)[C@H](C(=O)NCCC(=O)OCc2ccncc2)O1 (stereo partly drawn) [compound 20, (2S)-methyl 2-(((4R)-5,5-dimethyl-2-oxido-4-((3-oxo-3-(pyridin-4-ylmethoxy)propyl)carbamoyl)-1,3,2-dioxaphosphinan-2-yl)amino)propanoate] | < 9.6 min | <9.6 min | 4.79 ×10⁻⁶ cm/s | 3.38 ×10⁻⁶ cm/s | – | – |
| COC(=O)CCNC(=O)[C@@H]1OP(=O)(OCOC(=O)c2ccccc2)OCC1(C)C (stereo partly drawn) [Compound No. 64, (((4R)-4-((3-methoxy-3-oxopropyl)carbamoyl)-5,5-dimethyl-2-oxido-1,3,2-dioxaphosphinan-2-yl)oxy)methyl benzoate] | < 9.6 min | <9.6 min | 16 ×10⁻⁶ cm/s | 20.7 ×10⁻⁶ cm/s | – | – |
| COC(=O)CCNC(=O)[C@@H]1OP(=O)(N[C@@H](Cc2ccccc2)C(=O)OCc2ccccc2)OCC1(C)C (stereo partly drawn) [compound 10, benzyl ((4R)-4-((3-methoxy-3-oxopropyl)carbamoyl)-5,5-dimethyl-2-oxido-1,3,2-dioxaphosphinan-2-yl)-L-phenylalaninate] | – | – | 10.1 ×10⁻⁶ cm/s | 14 ×10⁻⁶ cm/s | – | – |
